According to the supplement of paper PMC11208160:

Assay: recombinant UMI read abundance after kanamycin selection (control-corrected) (log10(CPM+1)); higher = more efficient recombination; extreme values may be limits of the assay; sequences stand for … in AGTGCAGAGAAAATCGGCCAGTTTTCTCTGCCTGCAGTCCGCATGCCGTGGGACCCCTTGGGTTCTAACCTGTTGCCTAGATTTATGCAGCGGACTGCCTTTCTCCCAAAGTGATAAACCGG…AGGTTGGTTTCACT; site = the 11-nt donor
Summary of the method: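 Values are reported as log10(CPM+1), obtained by converting sequencing counts to CPM, averaging replicates and scaling by control-derived factors. The counts came from recombinant UMIs amplified by PCR across the donor–target junction. These UMIs came from a pooled Escherichia coli screen of donor and donor-binding-loop pairs for the IS621 bridge recombinase, plated with IPTG (0.07 mM) plus kanamycin or left unselected, in two replicates each.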
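Also: IS621 bridge recombinase in Escherichia coli cells against a fixed T5 target plasmid.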

Sequence	recombinant UMI read abundance (log10)
CTCCGTACATGGACCGGTTTTCCCGGTAATCCGTATTTGAG (site CTCCGTACTCT)	0.509
CTCCGTACATGGACCGGTTTTCCCGGTAATCCGTATTTGAG (site CTCCTTACTCT)	0.0158
CTCCTCCCATGGACCGGTTTTCCCGGTAATCCGTATTTGAC (site CTCCTCCCTGT)	1.49
CTCCTCGCATGGACCGGTTTTCCCGGTAATCCGTATTTGAA (site CTCCTCGCTTT)	1.06
CTCCTCTCATGGACCGGTTTTCCCGGTAATCCGTATTTGTA (site CTACTCTCTTA)	0.176
CTCCTCTCATGGACCGGTTTTCCCGGTAATCCGTATTTGTA (site CTCCTCTCTTA)	2.45
CTCCTCTCATGGACCGGTTTTCCCGGTAATCCGTATTTGTA (site CTGCTCTCTTA)	0.0102
CTCCTCTCATGGACCGGTTTTCCCGGTAATCCGTATTTGTA (site CTTCTCTCTTA)	0
CTCCTTGCATGGACCGGTTTTCCCGGTAATCCGTATTTGTA (site CTCCTTGCTTA)	0
CTCGAATCATGGACCGGTTTTCCCGGTAATCCGTATTTGAC (site CTAGTATCTGT)	0.00618
CTCGAATCATGGACCGGTTTTCCCGGTAATCCGTATTTGAC (site CTCGAATCTGT)	1.76
CTCGACACATGGACCGGTTTTCCCGGTAATCCGTATTTGCT (site CTCAACACTAG)	1.72
CTCGACACATGGACCGGTTTTCCCGGTAATCCGTATTTGCT (site CTCCACACTAG)	1.93
CTCGACACATGGACCGGTTTTCCCGGTAATCCGTATTTGCT (site CTCGACACTAG)	2.25
CTCGACACATGGACCGGTTTTCCCGGTAATCCGTATTTGCT (site CTCTACACTAG)	2.03
CTCGCACCATGGACCGGTTTTCCCGGTAATCCGTATTTGTC (site CTCGCACCTGA)	0
CTCGTCTCATGGACCGGTTTTCCCGGTAATCCGTATTTGAC (site CTAGTATCTGT)	0
CTCGTCTCATGGACCGGTTTTCCCGGTAATCCGTATTTGAC (site CTCGTCTCTGT)	1.54
CTCTACACATGGACCGGTTTTCCCGGTAATCCGTATTTGCA (site CTCTACACTAG)	1.37
CTCTACACATGGACCGGTTTTCCCGGTAATCCGTATTTGCA (site CTCTACACTCG)	0.499
CTCTACACATGGACCGGTTTTCCCGGTAATCCGTATTTGCA (site CTCTACACTGG)	1.53
CTCTACACATGGACCGGTTTTCCCGGTAATCCGTATTTGCA (site CTCTACACTTG)	2.37
CTCTACACATGGACCGGTTTTCCCGGTAATCCGTATTTGGT (site CTCTACACTAA)	0.0359

Sequence	recombinant UMI read abundance (log10)
CTCTACACATGGACCGGTTTTCCCGGTAATCCGTATTTGGT (site CTCTACACTAC)	0.0415
CTCTACACATGGACCGGTTTTCCCGGTAATCCGTATTTGGT (site CTCTACACTAG)	0.21
CTCTACACATGGACCGGTTTTCCCGGTAATCCGTATTTGGT (site CTCTACACTAT)	0.203
CTCTAGTCATGGACCGGTTTTCCCGGTAATCCGTATTTGTG (site CTCTAGTCTCA)	1.99
CTCTTCACATGGACCGGTTTTCCCGGTAATCCGTATTTGCT (site CTCTACACTAG)	1.29
CTCTTCACATGGACCGGTTTTCCCGGTAATCCGTATTTGCT (site CTCTCCACTAG)	1.14
CTCTTCACATGGACCGGTTTTCCCGGTAATCCGTATTTGCT (site CTCTGCACTAG)	0
CTCTTCACATGGACCGGTTTTCCCGGTAATCCGTATTTGCT (site CTCTTCACTAG)	2.46
CTCTTCTCATGGACCGGTTTTCCCGGTAATCCGTATTTGGG (site CACTTCTCTCC)	0
CTCTTCTCATGGACCGGTTTTCCCGGTAATCCGTATTTGGG (site CCCTTCTCTCC)	0.0128
CTCTTCTCATGGACCGGTTTTCCCGGTAATCCGTATTTGGG (site CGCTTCTCTCC)	0.014
CTCTTCTCATGGACCGGTTTTCCCGGTAATCCGTATTTGGG (site CTCTTCTCTCC)	0
CTCTTGGCATGGACCGGTTTTCCCGGTAATCCGTATTTGAA (site CTCTTGGCTTT)	1.08
CTCTTTGCATGGACCGGTTTTCCCGGTAATCCGTATTTGAC (site CTCTTTGCTGT)	0.503
CTGAACCCATGGACCGGTTTTCCCGGTAATCCGTATTTGTT (site CGGAATCCTAA)	0.0138
CTGAACCCATGGACCGGTTTTCCCGGTAATCCGTATTTGTT (site CTGAACCCTAA)	0.285
CTGAACTCATGGACCGGTTTTCCCGGTAATCCGTATTTGCG (site CTGAACTCTCG)	2.99
CTGAATCCATGGACCGGTTTTCCCGGTAATCCGTATTTGGT (site CGGAATCCTAA)	0.0153
CTGAATCCATGGACCGGTTTTCCCGGTAATCCGTATTTGGT (site CTGAATCCTAC)	0.615
CTGACATCATGGACCGGTTTTCCCGGTAATCCGTATTTGCT (site CAGACATCTAG)	1.06
CTGACATCATGGACCGGTTTTCCCGGTAATCCGTATTTGCT (site CCGACATCTAG)	1.39
CTGACATCATGGACCGGTTTTCCCGGTAATCCGTATTTGCT (site CGGACATCTAG)	0.00554
CTGACATCATGGACCGGTTTTCCCGGTAATCCGTATTTGCT (site CTGACATCTAG)	2.47

Sequence	recombinant UMI read abundance (log10)
CTGACGACATGGACCGGTTTTCCCGGTAATCCGTATTTGTT (site CTGACGACTAA)	0.0946
CTGACTCCATGGACCGGTTTTCCCGGTAATCCGTATTTGTT (site CGGAATCCTAA)	0.00356
CTGACTCCATGGACCGGTTTTCCCGGTAATCCGTATTTGTT (site CTGACTCCTAA)	0.838
CTGATCCCATGGACCGGTTTTCCCGGTAATCCGTATTTGTG (site CTGATCCCTCA)	0.794
CTGCAAGCATGGACCGGTTTTCCCGGTAATCCGTATTTGTA (site CTGCAAGCTTA)	1.8
CTGCCATCATGGACCGGTTTTCCCGGTAATCCGTATTTGGT (site CTGCCATCTAC)	0
CTGCCCTCATGGACCGGTTTTCCCGGTAATCCGTATTTGTT (site CTGCCCTCTAA)	2.18
CTGCGTACATGGACCGGTTTTCCCGGTAATCCGTATTTGAT (site CTGCGTACTAT)	1.81
CTGCGTTCATGGACCGGTTTTCCCGGTAATCCGTATTTGAG (site CTGCGTTCTCT)	2.26
CTGCTAACATGGACCGGTTTTCCCGGTAATCCGTATTTGCT (site CTGCTAACTAG)	2.26
CTGCTAACATGGACCGGTTTTCCCGGTAATCCGTATTTGCT (site CTGCTACCTAG)	0
CTGCTAACATGGACCGGTTTTCCCGGTAATCCGTATTTGCT (site CTGCTAGCTAG)	0.313
CTGCTAACATGGACCGGTTTTCCCGGTAATCCGTATTTGCT (site CTGCTATCTAG)	0.474
CTGCTACCATGGACCGGTTTTCCCGGTAATCCGTATTTGCA (site CTGCTACCTAG)	0.00394
CTGCTACCATGGACCGGTTTTCCCGGTAATCCGTATTTGCA (site CTGCTACCTCG)	0.00238
CTGCTACCATGGACCGGTTTTCCCGGTAATCCGTATTTGCA (site CTGCTACCTGG)	0
CTGCTACCATGGACCGGTTTTCCCGGTAATCCGTATTTGCA (site CTGCTACCTTG)	0
CTGCTACCATGGACCGGTTTTCCCGGTAATCCGTATTTGGG (site CTGCTACCTCC)	0.0335
CTGCTACCATGGACCGGTTTTCCCGGTAATCCGTATTTGGT (site CTGCTACCTAA)	0.00859
CTGCTACCATGGACCGGTTTTCCCGGTAATCCGTATTTGGT (site CTGCTACCTAC)	0.00854
CTGCTACCATGGACCGGTTTTCCCGGTAATCCGTATTTGGT (site CTGCTACCTAG)	0
CTGCTACCATGGACCGGTTTTCCCGGTAATCCGTATTTGGT (site CTGCTACCTAT)	0.00703
